Measurements published in patent US6355481B1, “Hybridoma cell line and monoclonal antibody for huntingtin protein” (Emory University, priority 1999, dated 2002).

Experiments:
150Q cells [1] = assay: Cell viability (MTS) assay, 150Q cells; type: cell-based, rat
Description: Cell viability and apoptosis assays. […] PC12 cells were plated in 96-well plates at a density of 10,000 cells/well and maintained 16-24 hr in complete medium. […] Leptomycin B (LMB; 10 nM) [provided by Dr. Minoru Yoshida (Kudo et al. (1997) J. Biol. […] After drug treatment, 20 μl of MTS reagent (2.1 mg/ml) was added to each well. The cells were then incubated for 30-45 min at 37° C. in a 5% CO2 incubator. The reaction was stopped by adding 25 μl of 10% SDS. The plates were read with a microplate reader (SPECTRAmax Plus; Molecular Devices, Palo Alto, Calif.) at 490 nm. Each data point was obtained using a triplet-well assay.

150Q cells [2] = assay: EM48 immunofluorescence and Hoechst staining after LMB, 150Q cells; type: cell-based, rat; conditions: LMB 10 nM
Description: (§1) Immunofluorescent labeling of cultured cells. Transfected cells grown in chamber slides were fixed in 4% paraformaldehyde in PBS for 15 min, permeabilized with 0.4% Triton X-100 in PBS for 30 min, blocked with 5% normal goat serum (NGS) in PBS for 1 hr, and incubated with primary antibodies in 2% NGS and PBS overnight at 4° C. After several washes, the cells were incubated with secondary antibodies conjugated with either FITC or rhodamine (Jackson ImmunoResearch, West Grove, Pa.). Hoechst dye (1 μg/ml) was used to label the nuclei. A Zeiss fluorescent microscope (Axioskop 2) and video system (Dage-MTI, Michigan City, Ind.) were used to capture images. The captured images were stored and processed using Adobe Photoshop software. Cell viability and apoptosis assays. […] PC12 cells were plated in 96-well plates at a density of 10,000 cells/well and maintained 16-24 hr in complete medium. […] Leptomycin B (LMB; 10 nM) [provided by Dr. Minoru Yoshida (Kudo et al. (1997) J. Biol. Chem. 272:29742-29751)] was added to the medium for 12-16 hr. After drug treatment, 20 μl of MTS reagent (2.1 mg/ml) was added to each well. The cells were then incubated for 30-45 min at 37° C. in a 5% CO2 incubator. The reaction was stopped by adding 25 μl of 10% SDS. The plates were read with a microplate reader (SPECTRAmax Plus; Molecular Devices, Palo Alto, Calif.) at 490 nm. […]

20Q cells [3] = assay: EM48 immunofluorescence and Hoechst staining after LMB, 20Q cells; type: cell-based, rat; conditions: LMB 10 nM
Description: as §1

parental PC12 cells [4] = assay: Neurite outgrowth assay, parental PC12 cells; type: cell-based, rat; conditions: for neurite outgrowth promoted by growth factor: control/parental PC12 cells, IL-6 20 ng/ml, CNTF 20 ng/ml, EGF 10 ng/ml, bFGF 20 ng/ml
Description: To evaluate neurite outgrowth, we plated the cells at low density (2×10^4 Cells/cm^2) onto six-well plates. Cell cultures were treated with NGF (100 ng/ml) for 48 hr or with staurosporine (50-100 nM) and EGF (10 ng/ml) for 16 hr and were fixed with 4% paraformaldehyde in PBS for 15 min. After several washes with PBS, cells with neurites exceeding the cell diameter were counted using an inverted microscope (Olympus Optical CK2, Tokyo, Japan). At the same time, five to seven images (10×) were captured by a Pixera camera, and the percentage of cells with neurites was confirmed by analyzing these images. On average, 500-800 cells were counted for each group.

[5] = system: PC12 cells expressing the 150Q mutant HD exon-1 protein (150Q cells); assay: Neurite outgrowth assay, 150Q cells; type: cell-based, rat
Description: (§2) Huntingtin constructs, transfection, and selection of stably transfected cell lines. A partial huntingtin CDNA containing 20 (20Q) or 150 CAG repeats was isolated from a lambda phage DNA that contains exon-1 of the human HD gene [provided by Dr. Gillian Bates (Mangiarini et al. (1996) Cell 87:493-506)]. The N-terminal huntingtin fragments encoded by these cDNAs were expressed using the pCIS expression vector that carries a cytomegalovirus promoter (Li et al. (1998) Hum. Molec. Genet. 7:777-782). The pCDNA3 vector, which carries the G418 resistance gene (Invitrogen, San Diego, Calif.), was cotransfected with the pCIS-huntingtin constructs. Subconfluent PC12 cells in 80 mm dishes were transfected with 7 μg of plasmid DNA and 10 μg/ml lipofectAMINE (Life Technologies) per dish. The transfected cells were then selected in the presence of 500 μg/ml G418 in DM EM plus 5% fetal bovine serum and 10% horse serum. Selected G418-resistant cells were subcloned and maintained in the same conditioned medium until each cell line contained homogenous transfected cells. […]
(§3) To evaluate neurite outgrowth, we plated the cells at low density (2×10^4 Cells/cm^2) onto six-well plates. […] After several washes with PBS, cells with neurites exceeding the cell diameter were counted using an inverted microscope (Olympus Optical CK2, Tokyo, Japan). […] On average, 500-800 cells were counted for each group.

parental PC12 cells [6] = assay: Trypan blue exclusion cell death assay, parental PC12 cells; type: cell-based, rat; conditions: 100 nm staurosporine
Description: (§4) Cell death rate and neurite outgrowth assays. Cells were plated at a standard density (4×10^4/cm^2) in six-well plates with DMEM supplemented with 5% FBS and 10% horse serum. Cultured cells were harvested, centrifuged at 1000 rpm for 5 min, and resuspended in PBS containing 0.4% trypan blue. The cells were incubated in the trypan blue solution for 10 min and transferred to a hemocytometer, and the number of viable (phase bright) and nonviable (blue) cells was recorded. For each sample, cell counts in four corner fields of the hemocytometer were averaged.

150Q cells [7] = assay: Trypan blue exclusion cell death assay, 150Q cells; type: cell-based, rat
Description: as §4

20Q cells [8] = assay: Cell viability (MTS) assay, 20Q cells; type: cell-based, rat; conditions: 20Q cells vs parental PC12 cells, >250 nM staurosporine
Description: Cell viability was determined by a modified 3-(4,5-dimethylthiazol-2-yl)-2,5-diphenyltetrazohum bromide (MTS) assay (Cell Titer 96; Promega), which is based on the conversion of tetrazolium salt 3-(4,5-dimethylthiazol-2-yl)-5-(3-carboxymethoxyphenyl)-2-(4-sulfophenyl) 2-H-tetrazolium by mitochondrial dehydrogenase to a formazan product, as measured at an absorbance of 490 nm. PC12 cells were plated in 96-well plates at a density of 10,000 cells/well and maintained 16-24 hr in complete medium. Cells were then changed to medium containing 1% FBS in the absence or presence of staurosporine at different concentrations. Staurosporine was dissolved in 2 mM dimethylsulfoxide (DMSO) and diluted in the medium at various concentrations. […] After drug treatment, 20 μl of MTS reagent (2.1 mg/ml) was added to each well. The cells were then incubated for 30-45 min at 37° C. in a 5% CO2 incubator. The reaction was stopped by adding 25 μl of 10% SDS. The plates were read with a microplate reader (SPECTRAmax Plus; Molecular Devices, Palo Alto, Calif.) at 490 nm. Each data point was obtained using a triplet-well assay.

parental PC12 cells [9] = conditions: PC12 cells (Yao et al. 1997); cited from earlier work
[10] = system: PC12 cells expressing the 20Q HD exon-1 protein (20Q cells); assay: Neurite outgrowth assay, 20Q cells; type: cell-based, rat; conditions: IL-6 20 ng/ml
Description: as §2, §3

[11] = 150Q cells treated with EGF and staurosporine together

## CCC(=C/[C@H](C)C/C=C/C(C)=C/[C@@H](C)C(=O)[C@@H](C)[C@H](O)[C@@H](C)C/C(C)=C/C(=O)O)/C=C/[C@@H]1OC(=O)C=C[C@@H]1C [LMB, Leptomycin B]
150Q cells [1]; 150Q cells vs control cells, LMB 10 nM
  cell viability after exposure to LMB: more 150Q cells than control cells were dying
150Q cells [2]
  DNA fragmentation after LMB: more 150Q cells showed DNA fragmentation
150Q cells [2]; vs without LMB
  intranuclear EM48 labeling after LMB: more 150Q cells had intense intranuclear EM48 labeling
20Q cells [3]
  DNA fragmentation after LMB: very few LMB-treated 20Q cells had DNA fragmentation
  nuclear labeling after LMB: increased the nuclear labeling of some 20Q cells

## CN[C@@H]1C[C@H]2O[C@@](C)([C@@H]1OC)n1c3ccccc3c3c4c(c5c6ccccc6n2c5c31)C(=O)NC4 [staurosporine]
Parental PC12 cells [4]; parental PC12 cells, 100 nm staurosporine
  neurite outgrowth with staurosporine: grew neurites
[5]; 150Q cells, 100 nm staurosporine, living cells
  neurite outgrowth with staurosporine: some of the living 150Q cells displayed neurite outgrowth
Parental PC12 cells [6]
  cell death with staurosporine: without displaying significant cell death
150Q cells [7]; 150Q cells, 100 nm staurosporine
  cell death with staurosporine: killed a significant number of 150Q cells
150Q cells [1]; 150Q cells vs 20Q or parental PC12 cells, 10-125 nM staurosporine
  susceptibility to staurosporine (cell viability): more susceptible
20Q cells [8]
  cell killing by higher doses of staurosporine: killed more 20Q cells than parental PC12 cells
Parental PC12 cells [9]
  time to initiation of neurite outgrowth: 4 to 6 h

## EGF: epidermal growth factor (NSDSECPLSHDGYCLHDGVCMYIEALDKYACNCVVGYIGERCQYRDLKWWELR; Epidermal growth factor; UniProt P01133 971-1023, looked up)
Parental PC12 cells [4]
  neurite outgrowth promoted by growth factor: very weak effect
[5]; [11]
  effect of EGF on neurite outgrowth: significantly enhanced neurite outgrowth
150Q cells [7]; [11]
  effect of EGF on cell death: reduced cell death
150Q cells [1]; 150Q cells, EGF 10 ng/ml in the presence of 10-100 nM staurosporine
  effect of EGF on cell viability: significantly increased cell viability

## IL-6: interleukin-6
Parental PC12 cells [4]
  neurite outgrowth promoted by growth factor: promoted neurite outgrowth
[10]
  neurite outgrowth promoted by growth factor: promoted neurite outgrowth
